Entries after “also recorded” stand apart in the source; their conditions may differ. Where two headings read alike, the source gives them in different places.
Columns and labels:
MINA53 = target: T1, MINA53 (Homo sapiens, UniProt Q8IUF8); assay: MINA53 MS (RapidFire) hydroxylation inhibition assay, Rpl27a peptide; format: biochemical
T1 construct: MINA53 (Met1-Val464 and Ala26-Val464); histidine tag (TEV-cleavable) (cleaved yes); made in house; host or cells: E. coli BL21(DE3)-R3-pRARE2

NO66 = target: T2, NO66 (Homo sapiens, UniProt Q9H6W3); assay: NO66 MS (RapidFire) hydroxylation inhibition assay, Rpl8 peptide; format: biochemical
T2 construct: histidine tag (TEV-cleavable) (cleaved yes); made in house; host or cells: E. coli BL21(DE3)-R3-pRARE2
T2 sequence (Q9H6W3 183-641): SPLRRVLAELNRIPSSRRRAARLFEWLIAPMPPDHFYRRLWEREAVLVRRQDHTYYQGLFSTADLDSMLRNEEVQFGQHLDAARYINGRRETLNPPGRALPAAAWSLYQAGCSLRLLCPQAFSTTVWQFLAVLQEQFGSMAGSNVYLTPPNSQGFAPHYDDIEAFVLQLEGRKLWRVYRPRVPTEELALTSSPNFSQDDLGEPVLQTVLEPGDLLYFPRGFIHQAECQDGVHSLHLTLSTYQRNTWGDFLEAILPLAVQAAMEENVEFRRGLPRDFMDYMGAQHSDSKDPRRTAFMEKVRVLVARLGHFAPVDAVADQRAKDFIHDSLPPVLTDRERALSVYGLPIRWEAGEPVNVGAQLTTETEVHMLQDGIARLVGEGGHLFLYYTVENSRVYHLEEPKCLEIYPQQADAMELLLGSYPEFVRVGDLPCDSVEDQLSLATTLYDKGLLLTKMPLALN

U-87MG malignant glioma = assay: MTT cell viability assay; format: cell-based, human; settings: 72, 96, 120 h, 10 to 100 μM, 10′ to a similar extent as 10
Protocol: (§1) Human commercially available established cancer cell lines HT-29 colon carcinoma (ATCC, HTB-38), U-87MG glioblastoma (ATCC, HTB-14), and MNK-45 gastric cancer (a gift from Dr. M. Broggini, Mario Negri Institute) were cultured in RPMI medium (Euroclone, Milan, IT) supplemented with 10% inactivated fetal bovine serum (HyClone, Thermo Scientific, South Logan, UT), 1% L-glutamine (Euroclone), and 100 μg/mL penicillin/streptomycin (Euroclone). HEK293T and HeLa cells were cultured in Dulbecco’s Modified Eagle Medium (DMEM, Gibco) supplemented with 10% (v/v) fetal bovine serum (FBS, Sigma) and 100 international units/mL (IU/mL) penicillin and 100 μg/mL streptomycin (Gibco). The cells were routinely tested for mycoplasma contamination and STR-authenticated.
(§2) Twenty-four hours following seeding, exponentially growing cells were treated with the different compounds at concentrations ranging from 10 to 100 μM for 72–120 h. Aqueous DMSO (0.5%, v/v) was used as a control (untreated). Cell viability was determined by the 3-(4,5-dimethylthiazol-2-yl)-2,5-diphenyltetrazolium bromide (MTT) colorimetric assay (Sigma-Aldrich). In summary, exponentially growing cancer cells were seeded in sextuplicate in 96-well culture plates (1.5 × 10^3 cells/well). After 24 h, the compounds were added at concentrations ranging from 10 to 100 μM. The effect of compounds on cancer cell proliferation was assessed by measuring the MTT dye absorbance of the cells as reported.[52] For combination treatments, the cells were treated with each of three compounds, either alone or in combination with doxorubicin. In particular, U-87MG cells were treated with doxorubicin alone or in combination with different MINA53 inhibitors for 24 h. The effect of different compounds or combinations (drug concentration ratio 1:20, doxorubicin: compound) on U-87MG cancer cell viability was assessed by measuring the MTT dye absorbance of cells. The interaction between doxorubicin (Doxo) and different compounds was evaluated based on the combination index (CI) using the CI equation through CalcuSyn software (Biosoft, Cambridge, U.K.). Synergism CI < 0.9, additivity 0.9 < CI < 1.1, antagonism CI > 1.1.

HT-29 colon carcinoma = assay: MTT cell viability assay; format: cell-based, human; settings: 72, 96, 120 h, 10 to 100 μM, 10′ to a similar extent as 10
Protocol: as §1, §2

MNK-45 gastric carcinoma = assay: MTT cell viability assay; format: cell-based, human; settings: 72, 96, 120 h, 10 to 100 μM, 10′ to a similar extent as 10
Protocol: as §1, §2

U-87MG cells = assay: MTT cell viability, alone or in combination with doxorubicin; combination index; format: cell-based, human; settings: 24 h
Protocol: as §2

PCAF = target: T3, PCAF (Homo sapiens, UniProt Q92831); assay: HotSpot KAT assay; format: biochemical; settings: means ± SD of three experiments, read-out: Residual Enzymatic Activity (%) PCAF
T3 construct: purchased Reaction Biology Corporation, Malvern, PA, USA
Protocol: (§3) The ef fects of 1-13 on th e histone lysine acetyltr a nsferas e activity (KAT ) o f p300 and PCAF were
(§4) determined using the HotSpot KAT assay ( Reaction Biology Corporation, Malvern, PA, USA)
(§5) according to the supplier’s procedure. In brief, recombinant form s of catal ytic domains of PCAF
(§6) NaCl, 0.1 mM EDTA, 1 mM DTT, 1 mM PMSF, 1% (v/v) DMSO) fo r 1 h at 30 °C in the presenc e
(§7) or absence of various concentrations of the inhibitors. Histone H3 acetyl ation was assessed by
(§8) liquid scintillation counting using a Tri-Carb 2800TR Liquid Scintillation Analyzer
(§9) (PerkinElmer). Assays at fixed con centration doses were performed in triplicate and analyzed
(§10) using Excel and GraphPad Prism 6.0 software (GraphPad Software Inc., San Diego, CA).

p300 = target: T4, p300 (Homo sapiens, UniProt Q09472); assay: HotSpot KAT assay; format: biochemical; settings: read-out: Residual Enzymatic Activity (%) p300
T4 construct: purchased Reaction Biology Corporation, Malvern, PA, USA
T4 sequence (Q09472 1284-1673): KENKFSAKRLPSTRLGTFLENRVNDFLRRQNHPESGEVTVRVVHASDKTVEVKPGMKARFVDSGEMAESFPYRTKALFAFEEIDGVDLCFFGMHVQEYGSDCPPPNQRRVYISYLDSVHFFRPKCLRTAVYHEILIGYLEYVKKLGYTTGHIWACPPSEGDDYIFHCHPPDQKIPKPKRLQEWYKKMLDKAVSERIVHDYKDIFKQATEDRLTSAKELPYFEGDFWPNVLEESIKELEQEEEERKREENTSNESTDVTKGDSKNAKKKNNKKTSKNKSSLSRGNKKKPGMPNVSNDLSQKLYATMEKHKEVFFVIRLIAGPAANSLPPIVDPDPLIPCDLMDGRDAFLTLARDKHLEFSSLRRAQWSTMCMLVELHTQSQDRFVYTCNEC
Protocol: as §3, §4, §5, §6, §7, §8, §9, §10

[1] = MINA53 (Met1-Val464), means ± 95% confidence, n = 3, read-out: IC50 value, MINA53 (assay validation, Figure S7)
[2] = NO66 (Ser183-Asn641), means ± 95% confidence, n = 3, read-out: IC50 value, NO66 (assay validation, Figure S7)
[3] = Table S12, read-out: NO66 IC50 (Table S12)

T1 sequence (Q8IUF8 1-464 isoform Q8IUF8-4): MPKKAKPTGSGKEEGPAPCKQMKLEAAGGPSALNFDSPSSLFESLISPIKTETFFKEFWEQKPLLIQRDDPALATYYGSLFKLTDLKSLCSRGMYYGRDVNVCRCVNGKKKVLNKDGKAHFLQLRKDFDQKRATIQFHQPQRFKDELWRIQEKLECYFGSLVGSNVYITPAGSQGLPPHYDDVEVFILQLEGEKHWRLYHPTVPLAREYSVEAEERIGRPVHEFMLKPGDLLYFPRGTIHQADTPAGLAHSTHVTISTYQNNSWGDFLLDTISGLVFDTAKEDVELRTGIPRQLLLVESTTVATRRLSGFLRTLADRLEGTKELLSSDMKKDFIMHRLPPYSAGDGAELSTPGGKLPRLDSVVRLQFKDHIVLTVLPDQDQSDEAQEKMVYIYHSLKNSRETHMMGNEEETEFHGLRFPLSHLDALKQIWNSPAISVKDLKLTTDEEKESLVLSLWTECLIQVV
T3 sequence (Q92831 492-658): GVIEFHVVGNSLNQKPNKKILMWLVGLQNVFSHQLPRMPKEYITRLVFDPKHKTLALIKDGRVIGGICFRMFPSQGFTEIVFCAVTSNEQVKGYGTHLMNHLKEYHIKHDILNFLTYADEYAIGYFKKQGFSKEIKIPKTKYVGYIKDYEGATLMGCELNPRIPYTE

In the case of `O=C(O)c1ccc(O)c2ncccc12` [IOX-1, reference compound], the IC50 (MINA53; [1]) is reported as 102 µM and the IC50 (NO66; [2]) is reported as 38.5 µM.

With `COC(=O)c1cnc(SCCCc2ccccc2)[nH]c1=O` [10′, Methyl 2-((3-phenylpropyl)thio)-3,4-dihydro-4-oxopyrimidine-5-carboxylate] the IC50 (MINA53; Table S12, read-out: MINA53 IC50 (Table S12)) was > 100 µM, the “effect on cell viability, U-87MG” value (U-87MG malignant glioma) was “reduced the cell viability” and the “effect on cell viability, HT-29” value (HT-29 colon carcinoma) was “reduced the cell viability”. The “effect on cell viability, MNK-45” value (MNK-45 gastric carcinoma) was “reduced the cell viability” and the IC50 (NO66; [3]) was 20.1 µM.

With `COc1cccc2c1C(=O)c1c(O)c3c(c(O)c1C2=O)C[C@@](O)(C(=O)CO)C[C@@H]3O[C@H]1C[C@H](N)[C@H](O)[C@H](C)O1` [doxorubicin, reference compound] the “cell viability, single compound treatment” value (U-87MG cells) was “reduced cell viability in a dose-dependent manner”.

`CCCCCCCCCCCCCCCc1cccc(O)c1C(=O)O` [Anacardic Acid (AA), reference compound] was tested, and the remaining activity at 100 µM (PCAF) was 4.7 ± 0.3% and the remaining activity at 100 µM (p300) was 0.9 ± 0.01%.

For `O=C(O)CNC(=O)C(=O)O` [NOG, N-oxalylglycine, reference compound], the IC50 (MINA53; [1]) was 1.8 µM and the IC50 (NO66; [2]) was 3.5 µM.

With `O=C(O)c1ccnc(C(=O)O)c1` [2,4-PDCA, pyridine-2,4-dicarboxylate, reference compound] the IC50 (NO66; [2]) was 0.11 µM and the IC50 (NO66; [3]) was 0.168 µM.

`O=C(O)CCNc1cc(N2CCc3ccccc3CC2)nc(-c2ccccn2)n1` [GSK-J1, reference compound] was tested, and the “inhibition of MINA53 at 100 μM” value (MINA53; at 100 μM) was “did not show significant inhibition; also recorded: No inhibition”, the “inhibition of NO66 at 100 μM” value (NO66; at 100 μM) was “did not show significant inhibition” and the inhibition at 100 µM (NO66; read-out: inhibition of NO66 at 100 μM) was 30%.

From publication PMC8667043, “First-in-Class Inhibitors of the Ribosomal Oxygenase MINA53” (Journal of Medicinal Chemistry, 2021)
